Source: US20070249501A1 (priority 2004, published 2007)

Key:
[1] = tested on: root-knot nematode Meloidogyne javanica; conditions: in vivo
[2] = tested on: microbial populations in soil; assay type: cell-based
[3] = tested on: tomato (cv. 870) seedlings; conditions: in vivo
[4] = tested on: Fusarium oxysporum f. sp. radicis-lycopersici (FORL); assay type: cell-based
Sclerotium rolfsii = assay type: cell-based

Compound: ClC=CCCl [1,3-dichloropropene]
- galling index of tomato plant roots [1]: zero

Compound: ClCCBr [BCE, ethylene bromochloride]
- reduction of microbial populations in soil [2]: none of the tested industrial biocides was capable of significantly reducing microbial populations in soil
- root system development in treated soil [3]: substantially stunted root system

Compound: BrC(Br)Br [BF, bromoform]
- reduction of microbial populations in soil [2]: none of the tested industrial biocides was capable of significantly reducing microbial populations in soil

Compound: OCC(CO)(CBr)CBr [DBNPG, dibromoneopentyl glycol]
- reduction of microbial populations in soil [2]: none of the tested industrial biocides was capable of significantly reducing microbial populations in soil

Compound: CN1CSC(=S)N(C)C1 [Dazomet, dazomet]
- effect on population densities of FORL, Verticillium dahliae, Macrophomina phaseolina and Streptomyces spp. in soil (FIG. 3) [2]: the effect of bromopicrin was similar to the effect of the commercial fumigant Basamid

Compound: COc1ccc(C=CC(=O)O)cc1 [MCA, methoxy cinnamic acid]
- reduction of microbial populations in soil [2]: none of the tested industrial biocides was capable of significantly reducing microbial populations in soil

Compound: O=S([O-])S(=O)(=O)[O-].[K+].[K+] [PMS, potassium metabisulfite]
- reduction of microbial populations in soil [2]: none of the tested industrial biocides was capable of significantly reducing microbial populations in soil
- root system development in treated soil [3]: substantially stunted root system

Compound: OCC(CBr)(CBr)CBr [TBNPA, tribromoneopentyl alcohol]
- reduction of microbial populations in soil [2]: none of the tested industrial biocides was capable of significantly reducing microbial populations in soil

Compound: O=[N+]([O-])CBr [monobromonitromethane, bromonitromethane]
- control of FORL in soil (percent survival, FIG. 6) [4]: effective in controlling soil-borne fungi
- control of S. rolfosii in soil (percent survival, FIG. 6) (Sclerotium rolfsii): effective in controlling soil-borne fungi

Compound: C[N+](=O)[O-] [nitromethane]
- control of FORL in soil (percent survival, FIG. 6) [4]: no effect in controlling pests
- control of S. rolfosii in soil (percent survival, FIG. 6) (Sclerotium rolfsii): no effect in controlling pests

Compound: tetrabromoethane [TBE]
- reduction of microbial populations in soil [2]: none of the tested industrial biocides was capable of significantly reducing microbial populations in soil

Compound: tetramethylammonium bromide [TMBr]
- reduction of microbial populations in soil [2]: none of the tested industrial biocides was capable of significantly reducing microbial populations in soil
